What was measured:
KRas^G12R = target: T1, KRas^G12R (Homo sapiens, UniProt P01116, G12R); experiment: KRas binding assay (TR-FRET displacement of Cy5 labelled tracer)
T1 construct: […]; biotin (biotinylated); purchased Accelegan Inc

KRas^Q61H = KRas^Q61H (Homo sapiens, UniProt P01116, Q61H); experiment: biochemical
KRas^G12C = KRas^G12C (Homo sapiens, UniProt P01116, G12C); experiment: biochemical
KRas^G12S = target: T2, KRas^G12S (Homo sapiens, UniProt P01116, G12S); experiment: KRas binding assay (TR-FRET displacement of Cy5 labelled tracer)
T2 construct: […]; biotin (biotinylated); purchased Accelegan Inc

KRas^G12V = target: T3, KRas^G12V (Homo sapiens, UniProt P01116, G12V); experiment: as above
T3 construct: […]; biotin (biotinylated); purchased Accelegan Inc

KRas^G12D = target: T4, KRas^G12D (Homo sapiens, UniProt P01116, G12D); experiment: as above
T4 construct: […]; biotin (biotinylated); purchased Accelegan Inc

KRas^WT = target: T5, KRas^WT (Homo sapiens, UniProt P01116); experiment: as above
T5 construct: […]; biotin (biotinylated); purchased Accelegan Inc

KRas^G13D = KRas^G13D (Homo sapiens, UniProt P01116, G13D); experiment: biochemical
KRas^G12A = target: T6, KRas^G12A (Homo sapiens, UniProt P01116, G12A); experiment: KRas binding assay (TR-FRET displacement of Cy5 labelled tracer)
T6 construct: […]; biotin (biotinylated); purchased Accelegan Inc
T6 sequence (P01116 1-169 isoform P01116-2 G12A): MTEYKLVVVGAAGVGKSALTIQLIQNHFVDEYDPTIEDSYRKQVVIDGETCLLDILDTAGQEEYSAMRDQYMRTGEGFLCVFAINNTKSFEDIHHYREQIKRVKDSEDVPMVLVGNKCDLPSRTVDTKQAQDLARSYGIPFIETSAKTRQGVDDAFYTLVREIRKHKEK

T4 sequence (P01116 1-169 isoform P01116-2 G12D): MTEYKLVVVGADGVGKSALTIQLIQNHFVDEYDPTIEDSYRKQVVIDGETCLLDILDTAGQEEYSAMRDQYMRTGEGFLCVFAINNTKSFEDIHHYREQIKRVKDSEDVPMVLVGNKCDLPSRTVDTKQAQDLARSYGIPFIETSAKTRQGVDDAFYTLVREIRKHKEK
T2 sequence (P01116 1-169 isoform P01116-2 G12S): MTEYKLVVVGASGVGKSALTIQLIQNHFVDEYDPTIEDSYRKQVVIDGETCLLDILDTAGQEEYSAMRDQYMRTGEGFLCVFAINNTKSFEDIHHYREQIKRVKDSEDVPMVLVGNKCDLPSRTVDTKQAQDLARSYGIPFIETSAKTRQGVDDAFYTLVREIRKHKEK
KRas^Q61H, sequence (P01116 1-169 isoform P01116-2 Q61H): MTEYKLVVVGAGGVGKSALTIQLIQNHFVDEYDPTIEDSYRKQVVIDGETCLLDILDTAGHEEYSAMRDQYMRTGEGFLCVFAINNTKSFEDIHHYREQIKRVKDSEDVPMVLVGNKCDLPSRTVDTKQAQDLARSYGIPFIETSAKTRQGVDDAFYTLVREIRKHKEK
T1 sequence (P01116 1-169 isoform P01116-2 G12R): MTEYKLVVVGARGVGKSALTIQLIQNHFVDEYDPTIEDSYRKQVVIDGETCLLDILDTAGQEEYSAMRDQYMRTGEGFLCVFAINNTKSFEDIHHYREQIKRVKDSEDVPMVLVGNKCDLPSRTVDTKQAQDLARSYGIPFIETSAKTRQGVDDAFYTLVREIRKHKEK
T5 sequence (P01116 1-169 isoform P01116-2): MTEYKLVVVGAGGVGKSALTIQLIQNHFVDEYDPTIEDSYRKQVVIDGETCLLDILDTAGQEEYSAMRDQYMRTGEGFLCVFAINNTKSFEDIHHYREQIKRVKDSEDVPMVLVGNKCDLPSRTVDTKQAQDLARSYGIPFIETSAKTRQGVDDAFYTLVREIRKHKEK
KRas^G13D, sequence (P01116 1-169 isoform P01116-2 G13D): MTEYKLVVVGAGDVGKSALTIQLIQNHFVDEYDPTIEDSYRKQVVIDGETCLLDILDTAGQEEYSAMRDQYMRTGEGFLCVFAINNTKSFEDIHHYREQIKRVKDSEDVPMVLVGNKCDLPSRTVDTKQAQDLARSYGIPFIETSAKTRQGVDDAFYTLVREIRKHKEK
T3 sequence (P01116 1-169 isoform P01116-2 G12V): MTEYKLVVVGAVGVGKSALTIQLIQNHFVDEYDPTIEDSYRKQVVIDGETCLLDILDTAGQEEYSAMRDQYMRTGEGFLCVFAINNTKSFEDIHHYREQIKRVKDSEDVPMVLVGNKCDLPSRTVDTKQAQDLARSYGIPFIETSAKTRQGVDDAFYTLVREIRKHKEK
KRas^G12C, sequence (P01116 1-169 isoform P01116-2 G12C): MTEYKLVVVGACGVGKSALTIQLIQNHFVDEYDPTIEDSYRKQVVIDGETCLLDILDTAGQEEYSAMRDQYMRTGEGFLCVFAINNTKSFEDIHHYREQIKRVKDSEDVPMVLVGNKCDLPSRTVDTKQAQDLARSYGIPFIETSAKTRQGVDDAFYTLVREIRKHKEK

IC50 (KRas^G12R) [µM]	IC50 (KRas^Q61H) [µM]	IC50 (KRas^G12C) [µM]	IC50 (KRas^G12S) [µM]	IC50 (KRas^G12V) [µM]	IC50 (KRas^G12D) [µM]	IC50 (KRas^WT) [µM]	IC50 (KRas^G13D) [µM]	IC50 (KRas^G12A) [µM]	SMILES
1.64	1.61	2.3	2.49	1.26	8.52	1.61	1.2	2.95	CCc1cccc2cccc(N3CCc4c(nc(OCC56CCCN5CCC6)nc4N4CC[C@H]5C(=O)NC[C@H]5C4)C3)c12 [Example 141, (3aS,7aR)-5-(7-(8-ethylnaphthalen-1-yl)-2-((tetrahydro-1H-pyrrolizin-7a(5H)-yl)methoxy)-5,6,7,8-tetrahydropyrido[3,4-d]pyrimidin-4-yl)octahydro-1H-pyrrolo[3,4-c]pyridin-1-one]
1.72	7.25	1.25	1.87	1.38	10.5	7.52	13.1	2.33	CCc1cccc2cccc(N3CCc4c(nc(OCC56CCCN5CCC6)nc4NCc4cccnc4-n4cncn4)C3)c12 [Example 142, N-((2-(1H-1,2,4-triazol-1-yl)pyridin-3-yl)methyl)-7-(8-ethylnaphthalen-1-yl)-2-((tetrahydro-1H-pyrrolizin-7a(5H)-yl)methoxy)-5,6,7,8-tetrahydropyrido[3,4-d]pyrimidin-4-amine]
2.01	1.25	1.92	2.47	4.15	5.92	2.05	1.32	2.23	CCc1cccc2cccc(N3CCc4c(nc(OCC56CCCN5CCC6)nc4N4CCCC(c5n[nH]cc5NC(C)=O)C4)C3)c12 (stereo not drawn) [Example 143, N-(3-(1-(7-(8-ethylnaphthalen-1-yl)-2-((tetrahydro-1H-pyrrolizin-7a(5H)-yl)methoxy)-5,6,7,8-tetrahydropyrido[3,4-d]pyrimidin-4-yl)piperidin-3-yl)-1H-pyrazol-4-yl)acetamide]
11.1	10.6	4.98	5.68	6.28	1.26	7.51	10.1	8.49	CCc1cccc2cccc(N3CCc4c(nc(OCC56CCCN5CCC6)nc4N4CCn5ncc(S(C)(=O)=O)c5C4)C3)c12 [Example 144, 7-(8-ethylnaphthalen-1-yl)-4-(3-(methylsulfonyl)-6,7-dihydropyrazolo[1,5-a]pyrazin-5(4H)-yl)-2-((tetrahydro-1H-pyrrolizin-7a(5H)-yl)methoxy)-5,6,7,8-tetrahydropyrido[3,4-d]pyrimidine]
1.49	3.21	1.65	2.15	1.45	1.32	2.45	3.63	2.71	CCc1cccc2cccc(N3CCc4c(nc(OCC56CCCN5CCC6)nc4NC4CN(C(N)=O)C4)C3)c12 [Example 147, 3-((7-(8-ethylnaphthalen-1-yl)-2-((tetrahydro-1H-pyrrolizin-7a(5H)-yl)methoxy)-5,6,7,8-tetrahydropyrido[3,4-d]pyrimidin-4-yl)amino)azetidine-1-carboxamide]
4.35	7.8	3.07	2.9	1.35	7.62	7.31	7.15	3.24	CCc1cccc2cccc(N3CCc4c(nc(OCC56CCCN5CCC6)nc4NC[C@H]4CCC(=O)N4)C3)c12 [Example 148, (R)-5-(((7-(8-ethylnaphthalen-1-yl)-2-((tetrahydro-1H-pyrrolizin-7a(5H)-yl)methoxy)-5,6,7,8-tetrahydropyrido[3,4-d]pyrimidin-4-yl)amino)methyl)pyrrolidin-2-one]
1.82	6.31	1.85	3.35	1.42	43	4.75	6.89	2.54	CCc1cccc2cccc(N3CCc4c(nc(OCC56CCCN5CCC6)nc4N4CC5(CNC(=O)N5)C4)C3)c12 [Example 149, 2-(7-(8-ethylnaphthalen-1-yl)-2-((tetrahydro-1H-pyrrolizin-7a(5H)-yl)methoxy)-5,6,7,8-tetrahydropyrido[3,4-d]pyrimidin-4-yl)-2,5,7-triazaspiro[3.4]octan-6-one]
1.56	5.16	1.95	4.87	2.55	5.53	4.73	5.98	5.03	CCc1cccc2cccc(N3CCc4c(nc(OCC56CCCN5CCC6)nc4NC4CN(c5ccccn5)C4)C3)c12 [Example 150, 7-(8-ethylnaphthalen-1-yl)-N-(1-(pyridin-2-yl)azetidin-3-yl)-2-((tetrahydro-1H-pyrrolizin-7a(5H)-yl)methoxy)-5,6,7,8-tetrahydropyrido[3,4-d]pyrimidin-4-amine]
1.61	4.58	3.47	4.72	5.41	30.9	3.65	2.7	2.69	CCc1cccc2cccc(N3CCc4c(nc(OCC56CCCN5CCC6)nc4N4CCC(n5ccnn5)CC4)C3)c12 [Example 151, 4-(4-(1H-1,2,3-triazol-1-yl)piperidin-1-yl)-7-(8-ethylnaphthalen-1-yl)-2-((tetrahydro-1H-pyrrolizin-7a(5H)-yl)methoxy)-5,6,7,8-tetrahydropyrido[3,4-d]pyrimidine]
4.66	8.15	3.51	4.17	3.36	1.73	8.43	6.44	7.28	CCc1cccc2cccc(N3CCc4c(nc(OCC56CCCN5CCC6)nc4NC4CCNC(=O)C4)C3)c12 (stereo not drawn) [Example 153, 4-((7-(8-ethylnaphthalen-1-yl)-2-((tetrahydro-1H-pyrrolizin-7a(5H)-yl)methoxy)-5,6,7,8-tetrahydropyrido[3,4-d]pyrimidin-4-yl)amino)piperidin-2-one]
2.37	6.91	1.79	7.12	3.07	35.7	6.79	8.23	4.04	CCc1cccc2cccc(N3CCc4c(nc(OCC56CCCN5CCC6)nc4NCCNc4ncccc4C#N)C3)c12 [Example 154, 2-((2-((7-(8-ethylnaphthalen-1-yl)-2-((tetrahydro-1H-pyrrolizin-7a(5H)-yl)methoxy)-5,6,7,8-tetrahydropyrido[3,4-d]pyrimidin-4-yl)amino)ethyl)amino)nicotinonitrile]
4.92	4.67	4.42	3.4	7.31	22.4	3.17	4.86	1.86	CCc1cccc2cccc(N3CCc4c(nc(OCC56CCCN5CCC6)nc4NCc4c5c(n[nH]c4=O)CCCC5)C3)c12 [Example 155, 4-(((7-(8-ethylnaphthalen-1-yl)-2-((tetrahydro-1H-pyrrolizin-7a(5H)-yl)methoxy)-5,6,7,8-tetrahydropyrido[3,4-d]pyrimidin-4-yl)amino)methyl)-5,6,7,8-tetrahydrocinnolin-3(2H)-one]
9.04	19.9	7.02	10.6	1.95	6.3	17.3	15.5	24.3	CCc1cccc2cccc(N3CCc4c(nc(OCC56CCCN5CCC6)nc4NCc4nc5ncccc5o4)C3)c12 [Example 157, 7-(8-ethylnaphthalen-1-yl)-N-(oxazolo[4,5-b]pyridin-2-ylmethyl)-2-((tetrahydro-1H-pyrrolizin-7a(5H)-yl)methoxy)-5,6,7,8-tetrahydropyrido[3,4-d]pyrimidin-4-amine]
7.65	11	4.24	6.74	2.56	4.45	8.74	10	9.26	CCc1cccc2cccc(N3CCc4c(nc(OCC56CCCN5CCC6)nc4NCCNS(N)(=O)=O)C3)c12 [Example 160, N-(2-((7-(8-ethylnaphthalen-1-yl)-2-((tetrahydro-1H-pyrrolizin-7a(5H)-yl)methoxy)-5,6,7,8-tetrahydropyrido[3,4-d]pyrimidin-4-yl)amino)ethyl)sulfamide]
14.6	21.3	6.79	15	2.74	7.69	27.4	25.2	21.7	CCc1cccc2cccc(N3CCc4c(nc(OCC56CCCN5CCC6)nc4NCc4nnc(CSC)[nH]4)C3)c12 [Example 161, 7-(8-ethylnaphthalen-1-yl)-N-((5-((methylthio)methyl)-4H-1,2,4-triazol-3-yl)methyl)-2-((tetrahydro-1H-pyrrolizin-7a(5H)-yl)methoxy)-5,6,7,8-tetrahydropyrido[3,4-d]pyrimidin-4-amine]
